From ChEMBL document CHEMBL4145629, “Synthesis of Thymoquinone-Artemisinin Hybrids: New Potent Antileukemia, Antiviral, and Antimalarial Agents” (ACS Med Chem Lett, 2018)

Assays:
Plasmodium falciparum = assay: Antiplasmodial activity against Plasmodium falciparum 3D7 ring stage parasites infected in human erythrocytes after 72 hrs by SYBR Green 1 dye based fluorescence assay; assay type: functional, organism-based; settings: 3D7, 72 h
ADR5000 cell line = assay: Cytotoxicity against human CEM/ADR5000 cells overexpressing P-gp assessed as reduction in cell viability after 72 hrs by resazurin dye based assay; assay type: functional; settings: ADR5000, 72 h
CCRF-CEM = assay: Cytotoxicity against human CCRF-CEM cells assessed as reduction in cell viability after 72 hrs by resazurin dye based assay; assay type: functional
HFF = assay: Cytotoxicity against human HFF cells at 1 uM; assay type: cell-based
Human betaherpesvirus 5 [1] = assay: Potency index, ratio of artesunic acid EC50 to compound EC50 for recombinant HCMV AD169 expressing GFP infected in human foreskin fibroblast; assay type: functional
Human betaherpesvirus 5 [2] = assay: Potency index, ratio of ganciclovir EC50 to compound EC50 for recombinant HCMV AD169 expressing GFP infected in human foreskin fibroblast; assay type: functional

Compound	EC50 (Plasmodium falciparum) [nM]	EC50 (ADR5000 cell line) [nM]	EC50 (CCRF-CEM) [nM]	Activity (HFF) [%]	Ratio EC50 (Human betaherpesvirus 5 [1])	Ratio EC50 (Human betaherpesvirus 5 [2])
CC1=C(CCCOC(=O)CC(=O)OCCOC(=O)CCC(=O)O[C@@H]2O[C@@H]3O[C@@]4(C)CC[C@H]5[C@H](C)CC[C@@H]([C@H]2C)[C@@]35OO4)C(=O)C(C(C)C)=CC1=O	4.4	8200	80			
CC1=C(CCCOC(=O)CCC(=O)O[C@@H]2O[C@@H]3O[C@@]4(C)CC[C@H]5[C@H](C)CC[C@@H]([C@H]2C)[C@@]35OO4)C(=O)C(C(C)C)=C(CCCOC(=O)CCC(=O)O[C@@H]2O[C@@H]3O[C@@]4(C)CC[C@H]5[C@H](C)CC[C@@H]([C@H]2C)[C@@]35OO4)C1=O	4.3	200	200			
CC1=C(CCOC(=O)CCC(=O)O[C@@H]2O[C@@H]3O[C@@]4(C)CC[C@H]5[C@H](C)CC[C@@H]([C@H]2C)[C@@]35OO4)C(=O)C(C(C)C)=CC1=O	8.2	1000	1200			
CC1=C(CCCCOC(=O)C[C@H]2O[C@@H]3O[C@@]4(C)CC[C@H]5[C@H](C)CC[C@@H]([C@H]2C)[C@@]35OO4)C(=O)C(C(C)C)=CC1=O	17.5					
CC1=C(CCCCOC(=O)CCC(=O)OCC(C[C@H]2O[C@@H]3O[C@@]4(C)CC[C@H]5[C@H](C)CC[C@@H]([C@H]2C)[C@@]35OO4)C[C@H]2O[C@@H]3O[C@@]4(C)CC[C@H]5[C@H](C)CC[C@@H]([C@H]2C)[C@@]35OO4)C(=O)C(C(C)C)=CC1=O (stereo partly specified)	12.2	7870	2.7	50		
CC1=C(CCCOC(=O)CCC(=O)O[C@@H]2O[C@@H]3O[C@@]4(C)CC[C@H]5[C@H](C)CC[C@@H]([C@H]2C)[C@@]35OO4)C(=O)C(C(C)C)=CC1=O	6.9	1300	500			
CC1=C(CCCCOC2O[C@@H]3O[C@@]4(C)CC[C@H]5[C@H](C)CC[C@@H]([C@H]2C)[C@@]35OO4)C(=O)C(C(C)C)=CC1=O (stereo partly specified)	3.7	200	300		8	5
CC1=C(CCCOC(=O)C[C@H]2O[C@@H]3O[C@@]4(C)CC[C@H]5[C@H](C)CC[C@@H]([C@H]2C)[C@@]35OO4)C(=O)C(C(C)C)=CC1=O	54					
CC1=C(CCCOC2O[C@@H]3O[C@@]4(C)CC[C@H]5[C@H](C)CC[C@@H]([C@H]2C)[C@@]35OO4)C(=O)C(C(C)C)=CC1=O (stereo partly specified)	5.9	200	200		8	5
CC1=C(CCCCOC(=O)CCC(=O)O[C@@H]2O[C@@H]3O[C@@]4(C)CC[C@H]5[C@H](C)CC[C@@H]([C@H]2C)[C@@]35OO4)C(=O)C(C(C)C)=C(CCCCOC(=O)CCC(=O)O[C@@H]2O[C@@H]3O[C@@]4(C)CC[C@H]5[C@H](C)CC[C@@H]([C@H]2C)[C@@]35OO4)C1=O	12.1	5660	6070	50		
CC1=C(CCCCOC(=O)CCC(=O)O[C@@H]2O[C@@H]3O[C@@]4(C)CC[C@H]5[C@H](C)CC[C@@H]([C@H]2C)[C@@]35OO4)C(=O)C(C(C)C)=CC1=O	7.7	800	1400			
C[C@H]1[C@H](OC(=O)CCC(=O)O)O[C@@H]2O[C@@]3(C)CC[C@H]4[C@H](C)CC[C@@H]1[C@@]24OO3 [ARTESUNATE]	8.2	100	400			
COc1cccc2c1C(=O)c1c(O)c3c(c(O)c1C2=O)C[C@@](O)(C(=O)CO)C[C@@H]3O[C@H]1C[C@H](N)[C@H](O)[C@H](C)O1 [DOXORUBICIN]		23300	9			
CC1=CC(=O)C(C(C)C)=CC1=O [THYMOQUINONE]	> 80000					
